Key:
Type in all cases: in vivo
[1] = system: Glycine max (GLXMA); assay: pre-emergence herbicidal test
Procedure: (§1) To evaluate their herbicidal activity, compounds according to the invention are tested using a representative range of plants: […] The pre-emergence tests involve spraying a liquid formulation of the compound onto the soil in which the seeds of the plant species mentioned above has recently been sown. The soil used in the tests is a prepared horticultural loam. […] In these tests untreated sown soil are used as controls.

[2] = system: Alopecurus myosuroides (ALOMY); assay: pre-emergence herbicidal test; conditions: second assessment 21 days after treatment
Procedure: as §1

[3] = system: Setaria viridis (SETVI); assay: pre-emergence herbicidal test; conditions: second assessment 21 days after treatment
Procedure: as §1

[4] = system: Zea mays (ZEAMX); assay: pre-emergence herbicidal test
Procedure: as §1

[5] = system: Triticum aestivum (TRZAW); assay: pre-emergence herbicidal test
Procedure: as §1

[6] = system: Abutilon theophrasti (ABUTH); assay: pre-emergence herbicidal test; conditions: second assessment 21 days after treatment
Procedure: as §1

[7] = system: Matricaria inodora (MATIN); assay: pre-emergence herbicidal test; conditions: second assessment 21 days after treatment
Procedure: as §1

[8] = system: Ipomoea hederacea (IPOHE); assay: pre-emergence herbicidal test; conditions: second assessment 21 days after treatment
Procedure: as §1

[9] = system: weeds; assay: pre-emergence test, overall weed control; conditions: dose of 25 g/ha
Procedure: (§2) To evaluate their herbicidal activity, compounds according to the invention are tested using a representative range of plants:
(§3) The pre-emergence tests involve spraying a liquid formulation of the compound onto the soil in which the seeds of the plant species mentioned above has recently been sown.
(§4) The soil used in the tests is a prepared horticultural loam. The formulations used in the tests are prepared from solutions of the test compounds in acetone containing 0.4% by weight of an alkylphenol/ethylene oxide condensate available under the trade mark TRITON X-155. These acetone solutions are diluted with water and the resulting formulations applied at dosage levels corresponding to 12.5 g, 25 g, 100 g or 400 g of active material per hectare in a volume equivalent to 900 liters per hectare. In these tests untreated sown soil are used as controls.
(§5) From 2 to 4 weeks after treatment, the tests are terminated and each pot is examined and rated according to the rating system set forth below:
(§6) The compounds of the invention have shown to clearly improve selectivity in important crops (maize, soybeans, wheat, barley) when compared to the corresponding compounds of the state of the art having a central 4-methylpyrid-2,6-diyl moiety instead of the 3,5-difluoro-4-methylpyrid-2,6-diyl group according to the invention.

[10] = system: Oryza sativa (ORYSA); assay: pre-emergence herbicidal test
Procedure: as §2, §3, §4
(§7) From 2 to 4 weeks after treatment, the tests are terminated and each pot is examined and rated according to the rating system set forth below: […]

[11] = system: Stellaria media (STEME); assay: pre-emergence herbicidal test; conditions: second assessment 21 days after treatment
Procedure: as §2, §3, §4, §7

[12] = system: Galium aparine (GALAP); assay: pre-emergence herbicidal test; conditions: second assessment 21 days after treatment
Procedure: as §2, §3, §4, §7

[13] = system: Hordeum vulgare (HORVW); assay: pre-emergence herbicidal test
Procedure: as §2, §3, §4, §7

[14] = system: Veronica persica (VERPE); assay: pre-emergence herbicidal test; conditions: second assessment 21 days after treatment
Procedure: as §2, §3, §4, §7

[15] = system: rice, maize and wheat; assay: pre-emergence test, crop tolerance and selectivity; conditions: dose of 25 g/ha
Procedure: as §2, §3, §4, §5, §6

[16] = 0.0125 kg/ha, first assessment 10 days after treatment
[17] = 0.0125 kg/ha, second assessment 21 days after treatment
[18] = 0.025 kg/ha, first assessment 10 days after treatment
[19] = 0.025 kg/ha, second assessment 21 days after treatment
[20] = 0.100 kg/ha, first assessment 10 days after treatment
[21] = 0.100 kg/ha, second assessment 21 days after treatment
[22] = 0.400 kg/ha, first assessment 10 days after treatment
[23] = 0.400 kg/ha, second assessment 21 days after treatment

Compound: Cc1c(F)c(Oc2cc(C(F)(F)F)nn2C)nc(-c2ccc(C(F)(F)F)cc2)c1F [Example 1, 3,5-Difluoro4-methyl-2-(1-methyl-3-trifluoromethylpyrazol-5-yloxy)-6-(4-trifluoromethylphenyl)pyridine]
- GLXMA rating [1, 16]: 2 (2 - Slight effect)
- GLXMA rating [1, 17]: 4 (4 - Injury)
- GLXMA rating [1, 18]: 2 (2 - Slight effect)
- GLXMA rating [1, 19]: 4 (4 - Injury)
- GLXMA rating [1, 20]: 3 (3 - Moderate effect)
- GLXMA rating [1, 21]: 5 (5 - Definite injury)
- GLXMA rating [1, 22]: 4 (4 - Injury)
- GLXMA rating [1, 23]: 5 (5 - Definite injury)
- ALOMY rating ([2]; 0.0125 kg/ha): 7 (7 - Good herbicidal effect)
- ALOMY rating ([2]; 0.025 kg/ha): 8 (8 - Approaching complete kill)
- ALOMY rating ([2]; 0.100 kg/ha): 9 (9 - Complete kill)
- ALOMY rating ([2]; 0.400 kg/ha): 9 (9 - Complete kill)
- SETVI rating ([3]; 0.0125 kg/ha): 7 (7 - Good herbicidal effect)
- SETVI rating ([3]; 0.025 kg/ha): 7 (7 - Good herbicidal effect)
- SETVI rating ([3]; 0.100 kg/ha): 9 (9 - Complete kill)
- SETVI rating ([3]; 0.400 kg/ha): 9 (9 - Complete kill)
- ZEAMX rating [4, 16]: 1 (1 - Trace effect)
- ZEAMX rating [4, 17]: 1 (1 - Trace effect)
- ZEAMX rating [4, 18]: 2 (2 - Slight effect)
- ZEAMX rating [4, 19]: 2 (2 - Slight effect)
- ZEAMX rating [4, 20]: 3 (3 - Moderate effect)
- ZEAMX rating [4, 21]: 3 (3 - Moderate effect)
- TRZAW rating [5, 16]: 3 (3 - Moderate effect)
- TRZAW rating [5, 17]: 3 (3 - Moderate effect)
- TRZAW rating [5, 18]: 3 (3 - Moderate effect)
- TRZAW rating [5, 19]: 3 (3 - Moderate effect)
- TRZAW rating [5, 20]: 5 (5 - Definite injury)
- TRZAW rating [5, 21]: 5 (5 - Definite injury)
- TRZAW rating [5, 22]: 6 (6 - Herbicidal effect)
- TRZAW rating [5, 23]: 6 (6 - Herbicidal effect)
- ABUTH rating ([6]; 0.0125 kg/ha): 6 (6 - Herbicidal effect)
- ABUTH rating ([6]; 0.025 kg/ha): 9 (9 - Complete kill)
- ABUTH rating ([6]; 0.100 kg/ha): 9 (9 - Complete kill)
- ABUTH rating ([6]; 0.400 kg/ha): 9 (9 - Complete kill)
- MATIN rating ([7]; 0.0125 kg/ha): 8 (8 - Approaching complete kill)
- MATIN rating ([7]; 0.025 kg/ha): 8 (8 - Approaching complete kill)
- MATIN rating ([7]; 0.100 kg/ha): 9 (9 - Complete kill)
- MATIN rating ([7]; 0.400 kg/ha): 9 (9 - Complete kill)
- IPOHE rating ([8]; 0.025 kg/ha): 3 (3 - Moderate effect)
- IPOHE rating ([8]; 0.100 kg/ha): 9 (9 - Complete kill)
- IPOHE rating ([8]; 0.400 kg/ha): 9 (9 - Complete kill)
- overall levels of weed control [9]: good overall levels of weed control
- ORYSA rating [10, 16]: 1 (1 - Trace effect)
- ORYSA rating [10, 17]: 2 (2 - Slight effect)
- ORYSA rating [10, 18]: 1 (1 - Trace effect)
- ORYSA rating [10, 19]: 2 (2 - Slight effect)
- ORYSA rating [10, 20]: 3 (3 - Moderate effect)
- ORYSA rating [10, 21]: 4 (4 - Injury)
- ORYSA rating [10, 22]: 4 (4 - Injury)
- ORYSA rating [10, 23]: 5 (5 - Definite injury)
- STEME rating ([11]; 0.0125 kg/ha): 9 (9 - Complete kill)
- STEME rating ([11]; 0.025 kg/ha): 9 (9 - Complete kill)
- STEME rating ([11]; 0.100 kg/ha): 9 (9 - Complete kill)
- STEME rating ([11]; 0.400 kg/ha): 9 (9 - Complete kill)
- GALAP rating ([12]; 0.0125 kg/ha): 3 (3 - Moderate effect)
- GALAP rating ([12]; 0.025 kg/ha): 5 (5 - Definite injury)
- GALAP rating ([12]; 0.100 kg/ha): 7 (7 - Good herbicidal effect)
- GALAP rating ([12]; 0.400 kg/ha): 8 (8 - Approaching complete kill)
- HORVW rating [13, 16]: 4 (4 - Injury)
- HORVW rating [13, 17]: 4 (4 - Injury)
- HORVW rating [13, 18]: 5 (5 - Definite injury)
- HORVW rating [13, 19]: 4 (4 - Injury)
- HORVW rating [13, 20]: 5 (5 - Definite injury)
- HORVW rating [13, 21]: 5 (5 - Definite injury)
- HORVW rating [13, 22]: 6 (6 - Herbicidal effect)
- HORVW rating [13, 23]: 7 (7 - Good herbicidal effect)
- VERPE rating ([14]; 0.0125 kg/ha): 8 (8 - Approaching complete kill)
- VERPE rating ([14]; 0.025 kg/ha): 9 (9 - Complete kill)
- VERPE rating ([14]; 0.100 kg/ha): 9 (9 - Complete kill)
- VERPE rating ([14]; 0.400 kg/ha): 9 (9 - Complete kill)
- crop tolerance [15]: well tolerated

From US6673745B2, “Herbicidal 3,5-difluoropyridines” (BASF Aktiengesellschaft, priority 1997, dated 2004)
